Tests used:
ErbB2 WT = ErbB2 WT (Homo sapiens (Human), UniProt P04626); test: ErbB Enzyme Assay (HTRF KinEASE-TK), Assay 2; format: biochemical
EGFR = EGFR (Homo sapiens (Human), UniProt P00533); test: ErbB Enzyme Assay (HTRF KinEASE-TK), Assay 3; format: biochemical
[1] = biological target: ErbB2 with Exon 20 YVMA insertion (HER2-YVMA) (Homo sapiens (Human), UniProt P04626, INS775YVMA); test: Cellular Phosphorylation Assay, Assay 4 (constitutive ErbB2 phosphorylation, NIH 3T3 cells); format: cell-based
EGFR wild type (EGFR WT) = EGFR wild type (EGFR WT) (Homo sapiens (Human), UniProt P00533); test: Cellular Phosphorylation Assay, Assay 5 (EGF-stimulated EGFR phosphorylation, NIH 3T3 cells); format: cell-based
Chain of EGFR wild type (EGFR WT) (P00533 25-1210): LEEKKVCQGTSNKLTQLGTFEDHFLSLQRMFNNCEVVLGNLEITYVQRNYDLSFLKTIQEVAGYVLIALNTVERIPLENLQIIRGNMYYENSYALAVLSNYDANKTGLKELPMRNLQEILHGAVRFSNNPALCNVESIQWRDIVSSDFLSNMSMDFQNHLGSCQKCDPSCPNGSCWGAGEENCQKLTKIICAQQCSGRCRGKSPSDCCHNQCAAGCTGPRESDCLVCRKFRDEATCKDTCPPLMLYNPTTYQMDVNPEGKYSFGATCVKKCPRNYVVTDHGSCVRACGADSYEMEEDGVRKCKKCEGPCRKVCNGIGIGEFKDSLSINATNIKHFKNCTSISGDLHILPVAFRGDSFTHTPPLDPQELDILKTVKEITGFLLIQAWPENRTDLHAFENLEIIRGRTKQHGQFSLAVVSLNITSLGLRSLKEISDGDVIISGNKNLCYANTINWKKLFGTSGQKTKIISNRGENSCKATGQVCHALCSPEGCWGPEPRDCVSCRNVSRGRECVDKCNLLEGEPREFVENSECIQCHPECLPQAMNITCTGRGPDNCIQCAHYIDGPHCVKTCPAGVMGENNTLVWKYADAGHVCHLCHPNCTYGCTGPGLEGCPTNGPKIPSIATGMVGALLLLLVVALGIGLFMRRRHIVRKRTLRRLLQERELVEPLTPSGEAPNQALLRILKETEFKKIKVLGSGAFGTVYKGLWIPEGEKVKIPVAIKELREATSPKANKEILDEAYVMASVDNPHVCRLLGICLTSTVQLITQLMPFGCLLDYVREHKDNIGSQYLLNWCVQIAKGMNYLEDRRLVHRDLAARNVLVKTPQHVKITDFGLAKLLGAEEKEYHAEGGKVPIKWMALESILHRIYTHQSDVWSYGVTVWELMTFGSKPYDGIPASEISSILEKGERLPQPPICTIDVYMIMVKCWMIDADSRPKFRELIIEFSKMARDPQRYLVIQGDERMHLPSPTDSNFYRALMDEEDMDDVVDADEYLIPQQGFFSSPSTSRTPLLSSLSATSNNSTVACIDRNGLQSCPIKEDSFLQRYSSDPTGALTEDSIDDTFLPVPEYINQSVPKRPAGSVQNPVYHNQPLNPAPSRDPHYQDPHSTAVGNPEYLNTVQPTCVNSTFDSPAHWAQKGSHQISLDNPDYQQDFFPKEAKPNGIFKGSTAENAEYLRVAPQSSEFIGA

BCRP = BCRP (Homo sapiens (Human), UniProt Q9UNQ0); test: BCRP MDCKII efflux assay (Assay 7); format: in vitro ADME; conditions: dog; efflux ratio Papp(B-A)/Papp(A-B), BCRP MDCKII cells; read-out: Assay 7 Pe Ratio
Chain of BCRP (Q9UNQ0 whole entry): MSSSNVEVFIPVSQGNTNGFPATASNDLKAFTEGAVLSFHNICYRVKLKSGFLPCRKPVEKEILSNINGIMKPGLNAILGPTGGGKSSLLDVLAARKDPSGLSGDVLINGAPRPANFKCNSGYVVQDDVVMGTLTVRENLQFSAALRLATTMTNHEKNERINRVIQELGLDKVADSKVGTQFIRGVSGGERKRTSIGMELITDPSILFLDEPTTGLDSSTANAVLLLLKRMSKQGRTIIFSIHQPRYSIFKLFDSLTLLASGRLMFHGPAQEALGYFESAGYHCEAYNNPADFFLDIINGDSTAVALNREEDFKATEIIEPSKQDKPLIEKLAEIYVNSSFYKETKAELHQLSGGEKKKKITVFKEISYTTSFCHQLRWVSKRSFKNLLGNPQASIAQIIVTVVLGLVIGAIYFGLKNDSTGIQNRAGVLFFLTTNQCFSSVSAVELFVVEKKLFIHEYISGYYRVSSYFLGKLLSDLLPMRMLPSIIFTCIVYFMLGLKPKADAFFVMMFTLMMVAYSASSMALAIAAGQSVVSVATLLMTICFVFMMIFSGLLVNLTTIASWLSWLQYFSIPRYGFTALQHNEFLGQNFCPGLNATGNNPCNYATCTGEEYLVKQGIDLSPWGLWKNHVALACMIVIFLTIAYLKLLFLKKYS
Experimental: Assay conditions included with and without the BCRP-specific inhibitor, KO143, at a concentration of 0.3 μM to ascertain the contribution of BCRP to the efflux value of the test compound.
Final organic concentration in the assay was 1%.

MDR1 (P-gp) = MDR1 (P-gp) (Homo sapiens (Human), UniProt P08183); test: in vitro; conditions: pig, LLC-PK1
[2] = EGF-stimulated EGFR WT phosphorylation
[3] = cellular ErbB2 YVMA phosphorylation
[4] = cellular EGFR WT phosphorylation, EGF-stimulated

Chain of EGFR (P00533 25-1210): as the sequence (P00533 25-1210) above
Chain of ErbB2 WT (P04626 23-1255): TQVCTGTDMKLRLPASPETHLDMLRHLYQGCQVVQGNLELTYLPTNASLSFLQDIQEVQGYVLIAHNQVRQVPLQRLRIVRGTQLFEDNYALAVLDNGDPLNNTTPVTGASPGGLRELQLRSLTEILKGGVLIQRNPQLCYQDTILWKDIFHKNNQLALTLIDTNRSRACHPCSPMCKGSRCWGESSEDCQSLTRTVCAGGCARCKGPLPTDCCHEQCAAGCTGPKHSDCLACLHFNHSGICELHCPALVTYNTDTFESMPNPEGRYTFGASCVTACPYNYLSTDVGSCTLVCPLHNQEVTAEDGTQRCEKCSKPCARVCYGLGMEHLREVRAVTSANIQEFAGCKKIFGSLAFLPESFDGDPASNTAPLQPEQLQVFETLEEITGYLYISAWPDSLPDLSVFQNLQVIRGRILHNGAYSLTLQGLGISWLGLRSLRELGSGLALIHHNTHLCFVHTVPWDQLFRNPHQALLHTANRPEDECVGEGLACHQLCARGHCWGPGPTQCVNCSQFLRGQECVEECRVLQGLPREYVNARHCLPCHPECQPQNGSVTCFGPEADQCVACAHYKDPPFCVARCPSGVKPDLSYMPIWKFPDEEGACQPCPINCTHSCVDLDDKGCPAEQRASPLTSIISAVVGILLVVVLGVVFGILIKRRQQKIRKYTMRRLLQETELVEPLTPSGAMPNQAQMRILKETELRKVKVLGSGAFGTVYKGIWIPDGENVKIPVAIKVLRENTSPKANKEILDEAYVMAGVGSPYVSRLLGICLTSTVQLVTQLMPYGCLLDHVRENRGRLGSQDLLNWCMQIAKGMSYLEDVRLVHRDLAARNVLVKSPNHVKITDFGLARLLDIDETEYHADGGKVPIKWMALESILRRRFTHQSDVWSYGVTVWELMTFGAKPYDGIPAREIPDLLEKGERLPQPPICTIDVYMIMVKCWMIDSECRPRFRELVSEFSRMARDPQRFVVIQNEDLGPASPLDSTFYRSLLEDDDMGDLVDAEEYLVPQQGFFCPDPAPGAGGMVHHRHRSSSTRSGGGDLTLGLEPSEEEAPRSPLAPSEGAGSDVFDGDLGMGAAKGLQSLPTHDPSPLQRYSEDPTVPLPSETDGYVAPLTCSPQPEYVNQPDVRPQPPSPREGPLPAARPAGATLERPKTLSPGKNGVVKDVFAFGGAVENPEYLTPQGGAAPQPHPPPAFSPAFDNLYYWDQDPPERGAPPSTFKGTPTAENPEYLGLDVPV

Compound | IC50 (ErbB2 WT; ErbB2 WT enzyme) | IC50 (EGFR; EGFR enzyme) | IC50 ([1]; ErbB2 YVMA phosphorylation) | IC50 (EGFR wild type (EGFR WT); [2]) | efflux ratio at 2 h, 1 µM (BCRP) | efflux ratio at 2 h, 1 µM (MDR1 (P-gp)) | IC50 (ErbB2 WT; ErbB2 WT enzyme assay) | IC50 (EGFR; EGFR enzyme assay) | IC50 [1, 3] | IC50 (EGFR wild type (EGFR WT); [4])
C=CC(=O)N1C[C@H]2CC[C@@H]1CN2c1ccc2ncnc(Nc3ccc(Oc4ccn5ncnc5c4)c(C)c3F)c2n1 [Example 175, 1-((1R,4R)-5-(4-((4-([1,2,4]triazolo[1,5-a]pyridin-7-yloxy)-2-fluoro-3-methylphenyl)amino)pyrido[3,2-d]pyrimidin-6-yl)-2,5-diazabicyclo[2.2.2]octan-2-yl)prop-2-en-1-one] | 172 nM | 5350 nM | 22.2 nM | 2410 nM | 4.8 | 3.3 |  |  |  | 
C=CC(=O)N1CCN(c2ccc3ncnc(Nc4cc(C)c(Oc5ccn6ncnc6c5)cc4F)c3n2)CC12CC2 [Example 337] |  |  |  |  | 3.6 | 1.4 | 13 nM | 362 nM | 8.2 nM | 417 nM
C=CC(=O)N1C[C@@H]2C[C@H]1CN2c1ccc2ncnc(Nc3ccc(Oc4ccc5c(c4)ncn5C)c(C)c3F)c2n1 [Example 84, 1-((1S,4S)-5-(4-((2-fluoro-3-methyl-4-((1-methyl-1H-benzo[d]imidazol-5-yl)oxy)phenyl)amino)pyrido[3,2-d]pyrimidin-6-yl)-2,5-diazabicyclo[2.2.1]heptan-2-yl)prop-2-en-1-one] | 41 nM | 221 nM | 7.7 nM | 254 nM | 3.8 | 1.9 |  |  |  | 
C=CC(=O)N1CCC(c2ccc3ncnc(Nc4ccc(Oc5ccc6c(c5)ncn6C)c(C)c4F)c3n2)CC12CC2 (stereo not drawn) [Example 128, 1-(7-(4-((2-fluoro-3-methyl-4-((1-methyl-1H-benzo[d]imidazol-5-yl)oxy)phenyl)amino)pyrido[3,2-d]pyrimidin-6-yl)-4-azaspiro[2.5]octan-4-yl)prop-2-en-1-one] | 44.4 nM | ≥ 10000 nM | 27.7 nM | 2620 nM | 2.7 | 0.6 |  |  |  | 
C=CC(=O)N1CCCN(c2ccc3ncnc(Nc4ccc(Oc5ccn6ncnc6c5)c(Cl)c4F)c3n2)CC1(C)C [Example 261] |  |  |  |  | 3.6 | 1.3 | 13.4 nM | ≥ 10000 nM | 27.9 nM | 716 nM
C=CC(=O)N1CCC(Oc2ccc3ncnc(Nc4ccc(Oc5ccn6ncnc6c5)c(C)c4)c3n2)CC1 [Example 1, 1-(4-((4-((4-([1,2,4]triazolo[1,5-a]pyridin-7-yloxy)-3-methylphenyl)amino)pyrido[3,2-d]pyrimidin-6-yl)oxy)piperidin-1-yl)prop-2-en-1-one] | 33.6 nM | 4430 nM | 12.5 nM | 1010 nM | 7.3 | 11.4 |  |  |  | 
C=CC(=O)N1[C@H](C)CN(c2ccc3ncnc(Nc4cc(Cl)c(Oc5ccn6ncnc6c5)cc4F)c3n2)C[C@@H]1C [Example 265] |  |  |  |  | 3.4 | 1.2 | 17.2 nM | 7760 nM | 33.9 nM | 4040 nM
C=CC(=O)N1CC2CC(C1)N2c1ccc2ncnc(Nc3ccc(Oc4ccn5ncnc5c4)c(C)c3F)c2n1 [Example 46, 1-(6-(4-((4-([1,2,4]triazolo[1,5-a]pyridin-7-yloxy)-2-fluoro-3-methylphenyl)amino)pyrido[3,2-d]pyrimidin-6-yl)-3,6-diazabicyclo[3.1.1]heptan-3-yl)prop-2-en-1-one] | 119 nM | 1270 nM | 18.2 nM | 2100 nM | 2.5 | 2.5 |  |  |  | 
C=CC(=O)N1CC2CC(C1)N2c1ccc2ncnc(Nc3cc(C)c(Oc4ccc5c(c4)ncn5C)cc3F)c2n1 [Example 334] |  |  |  |  | 1.9 | 3.7 | 55.6 nM | 430 nM | 21.8 nM | 1080 nM
C=CC(=O)N1CCC(Oc2ccc3ncnc(Nc4ccc(Oc5ccc6cn(C)nc6c5)c(C)c4F)c3n2)CC1 [Example 6, 1-(4-((4-((2-fluoro-3-methyl-4-((2-methyl-2H-indazol-6-yl)oxy)phenyl)amino)pyrido[3,2-d]pyrimidin-6-yl)oxy)piperidin-1-yl)prop-2-en-1-one] | 3300 nM | ≥ 10000 nM | 54.2 nM | 2920 nM | 2.5 | 1.3 |  |  |  | 
C=CC(=O)N1CCC(Oc2ccc3ncnc(Nc4ccc(Oc5ccc6cn(C)nc6c5)c(Cl)c4F)c3n2)CC1 [Example 9, 1-(4-((4-((3-chloro-2-fluoro-4-((2-methyl-2H-indazol-6-yl)oxy)phenyl)amino)pyrido[3,2-d]pyrimidin-6-yl)oxy)piperidin-1-yl)prop-2-en-1-one] | 977 nM | ≥ 10000 nM | 66 nM | 840 nM | 2.4 | 1.7 |  |  |  | 
C=CC(=O)N1CCN(c2ccc3ncnc(Nc4ccc(Oc5cnc6c(c5)ncn6C)c(C)c4F)c3n2)C[C@@H]1C1CC1 [Example 167, (S)-1-(2-cyclopropyl-4-(4-((2-fluoro-3-methyl-4-((3-methyl-3H-imidazo[4,5-b]pyridin-6-yl)oxy)phenyl)amino)pyrido[3,2-d]pyrimidin-6-yl)piperazin-1-yl)prop-2-en-1-one] | 519 nM | ≥ 10000 nM | 25.1 nM | ≥ 5000 nM | 1.7 | 0.9 |  |  |  | 
C=CC(=O)N1C[C@H]2C[C@@H]1[C@H](c1ccc3ncnc(Nc4ccc(Oc5ccc6c(c5)ncn6C)c(C)c4F)c3n1)C2 (racemic) [Example 202, rac-1-((1R,4R,6R)-6-(4-((2-fluoro-3-methyl-4-((1-methyl-1H-benzo[d]imidazol-5-yl)oxy)phenyl)amino)pyrido[3,2-d]pyrimidin-6-yl)-2-azabicyclo[2.2.1]heptan-2-yl)prop-2-en-1-one] | 15.5 nM | 550 nM | 20.6 nM | 4220 nM | 2.8 | 1.2 |  |  |  | 
C=CC(=O)N1C[C@H]2CC[C@@H]1C[C@@H]2c1ccc2ncnc(Nc3ccc(Oc4ccn5ncnc5c4)c(C)c3F)c2n1 (racemic) [Example 217, rac-1-((1R,4S,5S)-5-(4-((4-([1,2,4]triazolo[1,5-a]pyridin-7-yloxy)-2-fluoro-3-methylphenyl)amino)pyrido[3,2-d]pyrimidin-6-yl)-2-azabicyclo[2.2.2]octan-2-yl)prop-2-en-1-one] | 18.8 nM | 1460 nM | 11.1 nM | 1850 nM | 1.9 | 0.8 |  |  |  | 
C=CC(=O)N1CCC(Oc2ccc3ncnc(Nc4ccc(Oc5ccn6ncnc6c5)c(Cl)c4F)c3n2)CC1 [Example 13, 1-(4-((4-((4-([1,2,4]triazolo[1,5-a]pyridin-7-yloxy)-3-chloro-2-fluorophenyl)amino)pyrido[3,2-d]pyrimidin-6-yl)oxy)piperidin-1-yl)prop-2-en-1-one] | 8.4 nM | 220 nM | 4 nM | 104 nM | 1.4 | 1.2 |  |  |  | 
C=CC(=O)N1CCCC(c2ccc3ncnc(Nc4ccc(Oc5cnc6c(c5)ncn6C)c(C)c4F)c3n2)CC1 (stereo not drawn) [Example 413] |  |  |  |  | 2 | 1 | 78.6 nM | 2220 nM | 24.6 nM | ≥ 5000 nM
C=CC(=O)N1C[C@H]2C[C@@H]1[C@H](c1ccc3ncnc(Nc4cc(C)c(Oc5cnc6c(c5)ncn6C)cc4F)c3n1)C2 [Example 416] |  |  |  |  | 2 | 0.9 | 79.5 nM | 2710 nM | 36.6 nM | ≥ 5000 nM
C=CC(=O)N1CCN(c2ccc3ncnc(Nc4ccc(Oc5cnc6c(c5)ncn6C)c(C)c4F)c3n2)C[C@H]1C1CC1 [Example 165, (R)-1-(2-cyclopropyl-4-(4-((2-fluoro-3-methyl-4-((3-methyl-3H-imidazo[4,5-b]pyridin-6-yl)oxy)phenyl)amino)pyrido[3,2-d]pyrimidin-6-yl)piperazin-1-yl)prop-2-en-1-one] | 177 nM | ≥ 10000 nM | 15.8 nM | ≥ 5000 nM | 1.6 | 0.9 |  |  |  | 
C=CC(=O)N1C[C@@H]2C[C@H]1CN(c1ccc3ncnc(Nc4ccc(Oc5ccn6ncnc6c5)c(C)c4F)c3n1)C2 [Example 251] |  |  |  |  | 4.8 | 1.5 | 494 nM | ≥ 10000 nM | 27.3 nM | ≥ 5000 nM
C=CC(=O)N1C[C@H]2C[C@H](c3ccc4ncnc(Nc5ccc(Oc6ccn7ncnc7c6)c(Cl)c5F)c4n3)[C@@H]1C2 [Example 230, 1-((1 S,4S,6S)-6-(4-((4-([1,2,4]triazolo[1,5-a]pyridin-7-yloxy)-3-chloro-2-fluorophenyl)amino)pyrido[3,2-d]pyrimidin-6-yl)-2-azabicyclo[2.2.1]heptan-2-yl)prop-2-en-1-one] | 13.6 nM | 312 nM | 21.4 nM | 996 nM | 2.7 | 0.8 |  |  |  | 
